Measured values published in patent publication US10766864B2, “Morphinan derivatives for the treatment of neuropathic pain” (Nektar Therapeutics, priority 2015, dated 2020).
Like-named read-outs stand apart in the source and are kept apart here.

Tests used:
[1] = molecular target: hMOR (Homo sapiens (Human), UniProt P35372); test: cAMP accumulation assay (inhibition of forskolin-stimulated cAMP) in CHO-K1 cells stably expressing hMOR; type: cell-based
Experimental: Mu opioid agonist activity for selected compounds was determined by the inhibition of forskolin-stimulated cAMP accumulation following MOR activation in CHO-K1 cells stably expressing the hMOR. […] IC50 values were calculated from […] analysis of the concentration-response curves using Graph Pad Prizm.

[2] = molecular target: mu opioid receptor (MOR) (Homo sapiens (Human), UniProt P35372); test: Competitive radioligand binding at MOR ([3H] Naloxone)
[3] = molecular target: NMDA receptor; test: Competitive radioligand binding at NMDA receptor ([3H] MK801), rat forebrain membranes; details: 0.2 nM [3H] MK801, reflects free base activity
[4] = hMOR-expressing CHO-K1 cells, 10 μM forskolin, 60 minute incubation, read-out: MOR cAMP IC50
[5] = membranes from CHO-K1 cells expressing MOR, 2 nM [3H] Naloxone, reflects free base activity, read-out: MOR IC50

SMILES	IC50 [1]	IC50 [2]	IC50 [3]	IC50 [1, 4]	IC50 [2, 5]
COCCN1CC[C@]23CC(=O)CC[C@H]2[C@H]1Cc1ccc(O)cc13 [Compound 3, 3-hydroxy-17-(2-methoxyethyl)morphinan-6-one]	0.1 to 10 nM	0.1 to 10 nM			
COCCOc1ccc2c(c1)[C@]13CCN(C)[C@H](C2)[C@@H]1CCC(=O)C3 [Compound 7, 3-(2-methoxyethoxy)-17-methylmorphinan-6-one]	100 to 1000 nM	100 to 1000 nM	> 10000 nM		
COCCOCCN1CC[C@]23CCCC[C@H]2[C@H]1Cc1ccc(OC)cc13 [Compound 12, 3-methoxy-17-[2-(2-methoxyethoxy)ethyl]-morphinan]			> 10000 nM	> 1000 nM	> 1000 nM
COCCOCCN1CC[C@]23CCCC[C@H]2[C@H]1Cc1ccc(O)cc13 [Compound 15, 17-[2-(2-methoxyethoxy)ethyl]morphinan-3-ol]	10 to 100 nM	10 to 100 nM	> 10000 nM		
COCCOCCOCCN1CC[C@]23CCCC[C@H]2[C@H]1Cc1ccc(O)cc13 [Compound 16, 17-{2-{2-(2-methoxyethoxy)ethoxy]ethyl}-morphinan-3-ol]				> 1000 nM	> 1000 nM
COCCNC(=O)Oc1ccc2c(c1)[C@@]13CCCC[C@H]1[C@@H](C2)N(C)CC3 [Compound 18, 17-methylmorphinan-3-yl (2-methoxyethyl)carbamate]	100 to 1000 nM	100 to 1000 nM	1000 to 10000 nM		
COCCOc1c(O)ccc2c1[C@@]13CCCC[C@H]1[C@@H](C2)N(C)CC3 [Compound 22, 4-(2-methoxyethoxy)-17-methylmorphinan-3-ol]	10 to 100 nM	10 to 100 nM			
COc1ccccc1Nc1ccc2c(c1)[C@@]13CCCC[C@H]1[C@@H](C2)N(C)CC3 [Compound 30, N-(2-methoxyphenyl)-17-methylmorphinan-3-amine]	10 to 100 nM	10 to 100 nM	1000 to 10000 nM		
COCCOCCOCCO[C@@H]1CC[C@H]2[C@H]3Cc4ccc(O)cc4[C@@]2(CCN3C)C1 [Compound 47, (6β)-6-{2-[2-(2-methoxyethoxy)ethoxy]ethoxy}-17-methylmorphinan-3-ol]	0.1 to 10 nM	0.1 to 10 nM			
CN1CC[C@]23CCCC[C@H]2[C@H]1Cc1cc2ccc(N)nc2cc13 [Compound 101, (4aR,5R,12bR)-15-methyl-2,3,4,4a,5,6-hexahydro-1H-5,12b-(epiminoethano)naphtho[2,1-g]quinolin-10-amine]			1000 to 10000 nM		10 to 100 nM
CN1CC[C@]23CCCC[C@H]2[C@H]1Cc1cc2ccc(=O)[nH]c2cc13 [Compound 102, (4aR,5R,12bR)-15-methyl-1,2,3,4,4a,5,6,11-octahydro-10H-5,12b-(epiminoethano)naphtho[2,1-g]quinolin-10-one]			> 10000 nM		> 1000 nM
CN1CC[C@]23CCCC[C@H]2[C@H]1Cc1cc(C#N)c(N)cc13 [Compound 103, 3-amino-17-methylmorphinan-2-carbonitrile]			> 10000 nM		> 1000 nM
COCCOCCN1CC[C@]23CCCC[C@H]2[C@H]1Cc1ccc(Nc2cncc(F)c2)cc13 [Compound 104, 17-[2-(2-methoxyethoxy)ethyl]-N-(5-fluoro-pyridin-3-yl)morphinan-3-amine]		10 to 100 nM	> 10000 nM		
COCCOCCN1CC[C@]23CCCC[C@H]2[C@H]1Cc1ccc(Nc2nccs2)cc13 [Compound 105, N-((4bR,8aR,9R)-11-(2-(2-methoxyethoxy)ethyl)-6,7,8,8a,9,10-hexahydro-5H-9,4b-(epiminoethano)phenanthren-3-yl)thiazol-2-amine]		100 to 1000 nM	> 10000 nM		
COCCOCCN1CC[C@]23CCCC[C@H]2[C@H]1Cc1ccc(-c2ccoc2)cc13 [Compound 106, (4bR,8aR,9R)-3-(furan-3-yl)-11-(2-(2-methoxyethoxy)ethyl)-6,7,8,8a,9,10-hexahydro-5H-9,4b-(epiminoethano)phenanthrene]		100 to 1000 nM	> 10000 nM		
